Source: US20220117968A1, “THIENO[2,3-D)PYRIMIDINES AND BENZOFURO(3,2-D)PYRIMIDINES AS ANTIMICROBIAL AGENTS” (Saint Louis University, priority 2017, published 2022)
≈ marks a conversion by molar mass, not a printed value.

Legend:
WT Mtb Erdman = experiment: Disk zone of inhibition assay; format: cell-based; conditions: Mycobacterium tuberculosis, 240 h, radius of zone absent of bacterial growth, 5 μl of 100 mM stock in DMSO on disk, Middlebrook 7H10 agar, 10 days at 37° C.
WT Mtb Erdman strain = experiment: Microplate Alamar Blue Assay (MABA); format: cell-based; conditions: Mycobacterium tuberculosis, Middlebrook 7H9 media, 7 days at 37° C., resazurin 24 hours; for MIC50: concentration that inhibits mycobacterial survival by 50%, read-out: MABA MIC50; for MIC90: concentration that inhibits mycobacterial survival by 90%, read-out: MABA MIC90

Row | Structure (SMILES) | zone of inhibition at 100000 µM (stock) (WT Mtb Erdman) | MIC50 (WT Mtb Erdman strain) | MIC90 (WT Mtb Erdman strain)
1 | CCCCNc1nc(C)nc2sc3c(c12)CCCC3 [Example 0881, N-butyl-5-methyl-8-thia-4,6-diazatricyclo[7.4.0.0^2,^7]trideca-1(9),2,4,6-tetraen-3-amine] | 7 mm | 6.45 µM (≈ 1.78 µg/mL) | 13.4 µM (≈ 3.69 µg/mL)
2 | CCCCNc1nc(C)nc2c1oc1ccccc12 [Example 0927, N-butyl-4-methyl-8-oxa-3,5-diazatricyclo[7.4.0.0^2,^7]trideca-1(9),2(7),3,5,10,12-hexaen-6-amine] | 10 mm | 1.77 µM (≈ 0.452 µg/mL) | 4.02 µM (≈ 1.03 µg/mL)
3 | CCc1nc(NCCCO)c2cc(C)sc2n1 [Example 0936, 3-({2-ethyl-6-methylthieno[2,3-d]pyrimidin-4-yl}amino)propan-1-ol] | 0.75 mm | 26 µM (≈ 6.54 µg/mL) | 48.2 µM (≈ 12.1 µg/mL)
4 | CCc1nc(NCCCOC)c2cc(C)sc2n1 [Example 0941, 2-ethyl-N-(3-methoxypropyl)-6-methylthieno[2,3-d]pyrimidin-4-amine] | 4 mm | 7.79 µM (≈ 2.07 µg/mL) | 16.3 µM (≈ 4.33 µg/mL)
5 | CCc1nc(N2CCCCC2)c2cc(C)sc2n1 [Example 0942, 1-{2-ethyl-6-methylthieno[2,3-d]pyrimidin-4-yl}piperidine] | 5 mm | 47.5 µM (≈ 12.4 µg/mL) | > 50 µM
6 | CCc1nc(N(CC)CC)c2cc(C)sc2n1 [Example 0943, N,N,2-triethyl-6-methylthieno[2,3-d]pyrimidin-4-amine] | 4 mm | > 50 µM | > 50 µM
7 | CCc1nc(NC2CC2)c2cc(C)sc2n1 [Example 0946, N-Cyclopropyl-2-ethyl-6-methylthieno[2,3-d]pyrimidin-4-amine] | 27 mm | 0.633 µM (≈ 0.148 µg/mL) | 2.04 µM (≈ 0.476 µg/mL)
8 | CCc1nc(NCCOC)c2cc(C)sc2n1 [Example 0950, 2-ethyl-N-(2-methoxyethyl)-6-methylthieno[2,3-d]pyrimidin-4-amine] | 0 mm | 15.9 µM (≈ 4 µg/mL) | 28.4 µM (≈ 7.14 µg/mL)
9 | CCc1nc(NC2CCCC2)c2cc(C)sc2n1 [Example 0951, N-cyclopentyl-2-ethyl-6-methylthieno[2,3-d]pyrimidin-4-amine] | 1 mm | > 50 µM | > 50 µM
10 | CCc1nc(NC2CCC2)c2cc(C)sc2n1 [Example 1019, N-Cyclobutyl-2-ethyl-6-methylthieno[2,3-d]pyrimidin-4-amine] | 10 mm | 11.1 µM (≈ 2.75 µg/mL) | 26.4 µM (≈ 6.53 µg/mL)
11 | CCCCN(C)c1nc(CC)nc2sc(C)cc12 [Example 1021, N-Butyl-2-ethyl-N,6-dimethylthieno[2,3-d]pyrimidin-4-amine] | 10 mm | 3.93 µM (≈ 1.04 µg/mL) | 9.81 µM (≈ 2.58 µg/mL)
12 | CCc1nc(NCCC(C)C)c2cc(C)sc2n1 [Example 1022, 2-Ethyl-6-methyl-N-(3-methylbutyl)thieno[2,3-d]pyrimidin-4-amine] | 14 mm | 0.329 µM (≈ 0.0867 µg/mL) | 0.96 µM (≈ 0.253 µg/mL)
13 | CCc1nc(N)c2cc(C)sc2n1 [Example 1060, 2-Ethyl-6-methyl-thieno[2,3-d]pyrimidin-4-amine] | 0 mm | 10 µM (≈ 1.93 µg/mL) | 17.2 µM (≈ 3.32 µg/mL)
14 | Cc1cc2c(NC3CC3)nc(C(C)C)nc2s1 [Example 1061, N-Cyclopropyl-2-isopropyl-6-methyl-thieno[2,3-d]pyrimidin-4-amine] | 19 mm | 0.615 µM (≈ 0.152 µg/mL) | 1.28 µM (≈ 0.317 µg/mL)
15 | CCc1nc(NC(C)(C)C)c2cc(C)sc2n1 [Example 1069, N-tert-Butyl-2-ethyl-6-methyl-thieno[2,3-d]pyrimidin-4-amine] | 5 mm | 30.9 µM (≈ 7.71 µg/mL) | > 50 µM
16 | CCc1nc(NCC(F)(F)F)c2cc(C)sc2n1 [Example 1072, 2-Ethyl-6-methyl-N-(2,2,2-trifluoroethyl)thieno[2,3-d]pyrimidin-4-amine] | 9 mm | 6.32 µM (≈ 1.74 µg/mL) | 19.2 µM (≈ 5.29 µg/mL)
17 | CCc1nc(NC2CC2)c2ccsc2n1 [Example 1074, N-Cyclopropyl-2-ethyl-thieno[2,3-d]pyrimidin-4-amine] | 21 mm | 6.1 µM (≈ 1.34 µg/mL) | 22.7 µM (≈ 4.98 µg/mL)
18 | CCc1nc(NCCCC(F)(F)F)c2ccsc2n1 [Example 1366, 2-Ethyl-N-(4,4,4-trifluorobutyl)thieno[2,3-d]pyrimidin-4-amine] | 14 mm | 0.00133 µM (≈ 0.000385 µg/mL) | 0.00369 µM (≈ 0.00107 µg/mL)

Row | Structure (SMILES) | zone of inhibition at 100000 µM (stock) (WT Mtb Erdman) | MIC50 (WT Mtb Erdman strain) | MIC90 (WT Mtb Erdman strain)
19 | FC(F)(F)C(F)(F)c1nc(NCCCc2ccccc2)c2ccsc2n1 [Example 1539, 2-(1,1,2,2,2-Pentafluoroethyl)-N-(3-phenylpropyl)thieno[2,3-d]pyrimidin-4-amine] | – | 4.9 µM (≈ 1.9 µg/mL) | 7.36 µM (≈ 2.85 µg/mL)
20 | Cc1cc2c(NC3CC3)nc(C(F)(F)F)nc2s1 [Example 1540, N-Cyclopropyl-6-methyl-2-(trifluoromethyl)thieno[2,3-d]pyrimidin-4-amine] | – | 1.81 µM (≈ 0.495 µg/mL) | 4.79 µM (≈ 1.31 µg/mL)
21 | FC(F)(F)c1nc(NC2CC2)c2ccsc2n1 [Example 1541, N-Cyclopropyl-2-(trifluoromethyl)thieno[2,3-d]pyrimidin-4-amine] | 1.8 mm | 36.8 µM (≈ 9.54 µg/mL) | > 50 µM
22 | Cc1cc2c(NC3CC3)nc(C(F)(F)C(F)(F)F)nc2s1 [Example 1542, N-Cyclopropyl-6-methyl-2-(perfluoroethyl)thieno[2,3-d]pyrimidin-4-amine] | – | 5.28 µM (≈ 1.71 µg/mL) | 10.1 µM (≈ 3.27 µg/mL)
23 | FC(F)(F)C(F)(F)c1nc(NC2CC2)c2ccsc2n1 [Example 1543, N-Cyclopropyl-2-(perfluoroethyl)thieno[2,3-d]pyrimidin-4-amine] | – | 26.9 µM (≈ 8.32 µg/mL) | 29.6 µM (≈ 9.15 µg/mL)
24 | CCCCNc1nc(C(F)(F)F)nc2sc(C)cc12 [Example 1544, N-Butyl-6-methyl-2-(trifluoromethyl)thieno[2,3-d]pyrimidin-4-amine] | – | 1.14 µM (≈ 0.33 µg/mL) | 3.69 µM (≈ 1.07 µg/mL)
25 | CCCCNc1nc(C(F)(F)F)nc2sccc12 [Example 1545, N-Butyl-2-(trifluoromethyl)thieno[2,3-d]pyrimidin-4-amine] | 1.8 mm | 26.9 µM (≈ 7.41 µg/mL) | 30.5 µM (≈ 8.4 µg/mL)
26 | CCCCNc1nc(C(F)(F)C(F)(F)F)nc2sc(C)cc12 [Example 1546, N-Butyl-6-methyl-2-(perfluoroethyl)thieno[2,3-d]pyrimidin-4-amine] | – | 11.2 µM (≈ 3.8 µg/mL) | 12.4 µM (≈ 4.21 µg/mL)
27 | CCCCNc1nc(C(F)(F)C(F)(F)F)nc2sccc12 [Example 1547, N-Butyl-2-(perfluoroethyl)thieno[2,3-d]pyrimidin-4-amine] | – | 21.9 µM (≈ 7.12 µg/mL) | 23.8 µM (≈ 7.74 µg/mL)
28 | FC(F)(F)CCCNc1nc(C(F)(F)F)nc2sccc12 [Example 1548, N-(4,4,4-Trifluorobutyl)-2-(trifluoromethyl)thieno[2,3-d]pyrimidin-4-amine] | – | 12.3 µM (≈ 4.05 µg/mL) | 13.7 µM (≈ 4.51 µg/mL)
29 | FC(F)(F)CCCNc1nc(C(F)(F)C(F)(F)F)nc2sccc12 [Example 1549, 2-(Perfluoroethyl)-N-(4,4,4-trifluorobutyl)thieno[2,3-d]pyrimidin-4-amine] | – | 22.3 µM (≈ 8.46 µg/mL) | 24.2 µM (≈ 9.18 µg/mL)
30 | Cc1cc2c(NCCCC(F)(F)F)nc(C(F)(F)F)nc2s1 [Example 1551, 6-Methyl-N-(4,4,4-trifluorobutyl)-2-(trifluoromethyl)thieno[2,3-d]pyrimidin-4-amine] | – | 0.846 µM (≈ 0.29 µg/mL) | 3.88 µM (≈ 1.33 µg/mL)
31 | CCc1nc(NCCCc2ccccc2)c2c(C)csc2n1 [Example 1698, 2-Ethyl-5-methyl-N-(3-phenylpropyl)thieno[2,3-d]pyrimidin-4-amine] | – | 0.515 µM (≈ 0.16 µg/mL) | 3.67 µM (≈ 1.14 µg/mL)
32 | CCCCNc1nc(CC)nc2scc(C)c12 [Example 1699, N-Butyl-2-ethyl-5-methylthieno[2,3-d]pyrimidin-4-amine] | 6 mm | 35.5 µM (≈ 8.85 µg/mL) | 45.5 µM (≈ 11.3 µg/mL)
33 | CCc1nc(NCCCC(F)(F)F)c2c(C)csc2n1 [Example 1700, 2-Ethyl-5-methyl-N-(4,4,4-trifluorobutyl)thieno[2,3-d]pyrimidin-4-amine] | – | 26.8 µM (≈ 8.13 µg/mL) | 30.7 µM (≈ 9.31 µg/mL)
34 | CCc1nc(NC2CC2)c2c(C)csc2n1 [Example 1701, N-Cyclopropyl-2-ethyl-5-methylthieno[2,3-d]pyrimidin-4-amine] | 1.7 mm | 9.77 µM (≈ 2.28 µg/mL) | 16.1 µM (≈ 3.76 µg/mL)
35 | Cc1cccc(-c2nc(NCCCc3ccccc3)c3c(C)csc3n2)n1 [Example 1709, 5-methyl-2-(6-methylpyridin-2-yl)-N-(3-phenylpropyl)thieno[2,3-d]pyrimidin-4-amine] | – | 2.56 µM (≈ 0.959 µg/mL) | 19.7 µM (≈ 7.38 µg/mL)
36 | Cc1cccc(-c2nc(NCCCC(F)(F)F)c3c(C)csc3n2)n1 [Example 1711, 5-methyl-2-(6-methylpyridin-2-yl)-N-(4,4,4-trifluorobutyl)thieno[2,3-d]pyrimidin-4-amine] | – | 6.48 µM (≈ 2.37 µg/mL) | 19.4 µM (≈ 7.11 µg/mL)
